The text below walks through data of patent publication US9499538B2, “Estrogen receptor modulators and uses thereof” (Seragon Pharmaceuticals, Inc., priority 2012, dated 2016).

In one test the test system is MCF-7 cells. As to the kind of experiment: Breast Cancer Cell Viability Assays (MCF-7, CellTiter-Glo). In kind it is cell-based. To be noted: 5 days' compound exposure; for IC50: Homo sapiens, MCF7, 120 h. Put shortly: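 MCF-7 cells (320/well, RPMI with 10% FBS) exposed for 5 days to an eleven-point semilog series, 0.3–0.000003 μM final. Viability read by CellTiter-Glo luminescence, expressed as background-corrected percent of untreated cells.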

The target of the next test is T1, ER-α in MCF-7 cells (Homo sapiens, UniProt P03372).
T1 construct: endogenous in cells; host or cells: MCF-7
T1 sequence (P03372 1-595): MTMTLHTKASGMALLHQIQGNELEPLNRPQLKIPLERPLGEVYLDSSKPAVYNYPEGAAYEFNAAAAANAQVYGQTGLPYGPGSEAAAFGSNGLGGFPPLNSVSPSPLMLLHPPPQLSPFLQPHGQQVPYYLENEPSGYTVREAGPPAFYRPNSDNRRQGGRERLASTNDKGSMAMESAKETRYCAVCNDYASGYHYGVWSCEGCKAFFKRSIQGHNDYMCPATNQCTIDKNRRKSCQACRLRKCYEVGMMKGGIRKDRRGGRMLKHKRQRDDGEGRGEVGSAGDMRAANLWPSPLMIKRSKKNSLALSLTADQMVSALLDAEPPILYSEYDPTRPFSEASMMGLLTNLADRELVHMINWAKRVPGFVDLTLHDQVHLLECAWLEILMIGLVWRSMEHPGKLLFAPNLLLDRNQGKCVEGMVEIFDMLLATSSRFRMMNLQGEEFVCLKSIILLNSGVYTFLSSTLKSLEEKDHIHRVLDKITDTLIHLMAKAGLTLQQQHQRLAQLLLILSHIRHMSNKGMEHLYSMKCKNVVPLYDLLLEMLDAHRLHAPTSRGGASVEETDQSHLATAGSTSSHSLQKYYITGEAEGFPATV
In words: Breast Cancer Cell ER-α In Cell Western Assay (SP1). In kind it is cell-based. To be noted: 4 or 24 hr post compound addition; for Emax: MCF7, SP1 antibody, read-out: ER-α In Cell Western Assay (SP1) Max Response; for DC50: SP1 antibody, read-out: ER-α In Cell Western Assay (SP1) IC50. In a few lines: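 MCF-7 cells in charcoal-stripped FBS medium, treated with 11-point semilog dilutions (0.3–0.000003 μM final) for 4 or 24 h. Fixed cells immunostained with SP1 antibody (800 nm) and DRAQ5 DNA (700 nm); ER/DNA ratio expressed as % of untreated cells.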

Some results are limits rather than exact numbers.

As to `O=C(/C=C/c1ccc(/C(=C(\c2ccccc2)C2CCC2)c2ccc3[nH]nc(F)c3c2)cc1)NCCCl` [Example 191, (E)-N-(2-Chloroethyl)-3-(4-((E)-2-cyclobutyl-1-(3-fluoro-1H-indazol-5-yl)-2-phenylvinyl)phenyl)acrylamide], in the test on MCF-7 cells, the “MCF7 Viability Assay Max Response” value is “++ (++ = a single % value ≧ 40%)” and the IC50 (commonly the point on the concentration scale where inhibition reaches its midpoint) is at most 0.1 µM. In addition, on ER-α in MCF-7 cells, the Emax was at least 40% and the DC50 was at most 0.1 µM.
For the compound `OCC1CN=C(/C=C/c2ccc(/C(=C(\c3ccccc3)C3CCC3)c3ccc4[nH]nc(F)c4c3)cc2)O1` (stereo not shown) [Example 192, (2-((E)-4-((E)-2-Cyclobutyl-1-(3-fluoro-1H-indazol-5-yl)-2-phenylvinyl)styryl)-4,5-dihydrooxazol-5-yl)methanol], in the test with MCF-7 cells, the “MCF7 Viability Assay Max Response” value is “++ (++ = a single % value ≧ 40%)” and the IC50 was at most 0.1 µM. In addition, on ER-α in MCF-7 cells, the Emax is at least 40% and the DC50 is at most 0.1 µM.
As to `CS(=O)(=O)c1ccccc1/C(=C(\c1ccc(/C=C/C(=O)O)cc1)c1ccc2[nH]nc(F)c2c1)C1CC1` [Example 193, (E)-3-(4-((E)-2-Cyclopropyl-1-(3-fluoro-1H-indazol-5-yl)-2-(2-(methylsulfonyl)phenyl)vinyl)phenyl)acrylic acid], in the test with MCF-7 cells, the “MCF7 Viability Assay Max Response” value was “++ (++ = a single % value ≧ 40%)” and the IC50 was at most 0.1 µM. Further, on ER-α in MCF-7 cells, the Emax is at least 40% and the DC50 is at most 0.1 µM.
As to `CS(=O)(=O)c1ccccc1/C(=C(\c1ccc(/C=C/C(=O)O)cc1)c1ccc2[nH]nc(F)c2c1)C1CCC1` [Example 194, (E)-3-(4-((E)-2-Cyclobutyl-1-(3-fluoro-1H-indazol-5-yl)-2-(2-(methylsulfonyl)phenyl)vinyl)phenyl)acrylic acid], in the test on MCF-7 cells, the “MCF7 Viability Assay Max Response” value is “++ (++ = a single % value ≧ 40%)” and the IC50 is at most 0.1 µM. At ER-α in MCF-7 cells, the Emax was at least 40% and the DC50 is at most 0.1 µM.
In the case of `Cc1cc(S(C)(=O)=O)ccc1/C(=C(\c1ccc(/C=C/C(=O)O)cc1)c1ccc2[nH]nc(F)c2c1)C1CCC1` [Example 195, (E)-3-(4-((E)-2-Cyclobutyl-1-(3-fluoro-1H-indazol-5-yl)-2-(2-methyl-4-(methylsulfonyl)phenyl)vinyl)phenyl)acrylic acid], in the test on MCF-7 cells, the “MCF7 Viability Assay Max Response” value was “++ (++ = a single % value ≧ 40%)” and the IC50 is at most 0.1 µM. At ER-α in MCF-7 cells, the Emax is at least 40% and the DC50 was at most 0.1 µM.
In the case of `CS(=O)(=O)c1ccc(/C(=C(\c2ccc(/C=C/C(=O)O)cc2)c2ccc3[nH]nc(F)c3c2)C2CCC2)c(Cl)c1` [Example 196, (E)-3-(4-((E)-2-(2-Chloro-4-(methylsulfonyl)phenyl)-2-cyclobutyl-1-(3-fluoro-1H-indazol-5-yl)vinyl)phenyl)acrylic acid], in the test with MCF-7 cells, the “MCF7 Viability Assay Max Response” value is on record as “++ (++ = a single % value ≧ 40%)” and the IC50 was at most 0.1 µM. For the same compound, on ER-α in MCF-7 cells, the Emax was at least 40% and the DC50 is at most 0.1 µM.
`CS(=O)(=O)c1ccccc1/C(=C(\c1ccc(/C=C/C(=O)O)cc1)c1ccc2scnc2c1)C1CCC1` [Example 197, (E)-3-(4-((E)-1-(Benzo[d]thiazol-5-yl)-2-cyclobutyl-2-(2-(methylsulfonyl)phenyl)vinyl)phenyl)acrylic acid]: in the test with MCF-7 cells, the “MCF7 Viability Assay Max Response” value is “++ (++ = a single % value ≧ 40%)” and the IC50 was at most 0.1 µM. At ER-α in MCF-7 cells, the Emax was at least 40% and the DC50 is at most 0.1 µM.
Take `Cc1cc([S+](C)[O-])ccc1/C(=C(\c1ccc(/C=C/C(=O)O)cc1)c1ccc2[nH]nc(F)c2c1)C1CCC1` (stereo not shown) [Example 198]: in the test with MCF-7 cells, the “MCF7 Viability Assay Max Response” value was “++ (++ = a single % value ≧ 40%)” and the IC50 is at most 0.1 µM. In addition, on ER-α in MCF-7 cells, the Emax was at least 40% and the DC50 was at most 0.1 µM.
In the case of `CC/C(=C(/c1ccc(/C=C/C(=O)O)cc1)c1ccc2c(cnn2CCO)c1)c1ccc(F)cc1Cl` [Example 199, (E)-3-(4-((E)-2-(2-Chloro-4-fluorophenyl)-1-(1-(2-hydroxyethyl)-1H-indazol-5-yl)but-1-en-1-yl)phenyl)acrylic acid], in the test with MCF-7 cells, the “MCF7 Viability Assay Max Response” value is “++ (++ = a single % value ≧ 40%)” and the IC50 was at most 0.1 µM. For the same compound, on ER-α in MCF-7 cells, the Emax was at least 40% and the DC50 is at most 0.1 µM.
In the case of `CC/C(=C(/c1ccc(/C=C/C(=O)O)cc1)c1ccc2nn(CCO)cc2c1)c1ccc(F)cc1Cl` [Example 200, (E)-3-(4-((E)-2-(2-Chloro-4-fluorophenyl)-1-(2-(2-hydroxyethyl)-2H-indazol-5-yl)but-1-en-1-yl)phenyl)acrylic acid], in the test with MCF-7 cells, the “MCF7 Viability Assay Max Response” value was “++ (++ = a single % value ≧ 40%)” and the IC50 is over 0.1 µM. Further, on ER-α in MCF-7 cells, the Emax was at least 40% and the DC50 is at most 0.1 µM.
Taken in the same sequence, the figures for `O=C(O)/C=C/c1ccc(/C(=C(\c2ccccc2)C2CCC2)c2ccc3c(c2)c(F)nn3CCO)cc1` [Example 201, (E)-3-(4-((E)-2-Cyclobutyl-1-(3-fluoro-1-(2-hydroxyethyl)-1H-indazol-5-yl)-2-phenylvinyl)phenyl)acrylic acid] were “++ (++ = a single % value ≧ 40%)”, over 0.1 µM, at least 40% and at most 0.1 µM.
Take `O=c1[nH]c(/C=C/c2ccc(/C(=C(\c3ccccc3)C3CCC3)c3ccc4[nH]nc(F)c4c3)cc2)no1` [Example 202, 3-((E)-4-((E)-2-Cyclobutyl-1-(3-fluoro-1H-indazol-5-yl)-2-phenylvinyl)styryl)-1,2,4-oxadiazol-5(4H)-one]: in the test on MCF-7 cells, the “MCF7 Viability Assay Max Response” value is listed as “++ (++ = a single % value ≧ 40%)” and the IC50 is at most 0.1 µM. Further, on ER-α in MCF-7 cells, the Emax is at least 40% and the DC50 is at most 0.1 µM.
As to `NNC(=O)/C=C/c1ccc(/C(=C(\c2ccccc2)C2CCC2)c2ccc3[nH]nc(F)c3c2)cc1` [Example 203, (E)-3-(4-((E)-2-Cyclobutyl-1-(3-fluoro-1H-indazol-5-yl)-2-phenylvinyl)phenyl)acrylohydrazide], in the test with MCF-7 cells, the “MCF7 Viability Assay Max Response” value is “++ (++ = a single % value ≧ 40%)” and the IC50 is at most 0.1 µM. Besides, on ER-α in MCF-7 cells, the Emax was at least 40% and the DC50 was at most 0.1 µM.
For `Fc1n[nH]c2ccc(/C(=C(/c3ccccc3)C3CCC3)c3ccc(/C=C/c4cccnc4)cc3)cc12` [Example 205, 5-((E)-2-Cyclobutyl-2-phenyl-1-(4-((E)-2-(pyridin-3-yl)vinyl)phenyl)vinyl)-3-fluoro-1H-indazole], in the test on MCF-7 cells, the “MCF7 Viability Assay Max Response” value is recorded as “+ (+ = a single % value < 40%)” and the IC50 was over 0.1 µM. For the same compound, at ER-α in MCF-7 cells, the Emax is at least 40% and the DC50 was at most 0.1 µM.
For the compound `Fc1n[nH]c2ccc(/C(=C(/c3ccccc3)C3CCC3)c3ccc(/C=C/c4cn[nH]c4)cc3)cc12` [Example 206, 5-((E)-1-(4-((E)-2-(1H-Pyrazol-4-yl)vinyl)phenyl)-2-cyclobutyl-2-phenylvinyl)-3-fluoro-1H-indazole], in the test on MCF-7 cells, the “MCF7 Viability Assay Max Response” value is given as “+ (+ = a single % value < 40%)” and the IC50 was at most 0.1 µM. On ER-α in MCF-7 cells, the Emax is at least 40% and the DC50 was at most 0.1 µM.
Take `Fc1n[nH]c2ccc(/C(=C(/c3ccccc3)C3CCC3)c3ccc(/C=C/c4ccn[nH]4)cc3)cc12` [Example 207, 5-((E)-1-(4-((E)-2-(1H-Pyrazol-5-yl)vinyl)phenyl)-2-cyclobutyl-2-phenylvinyl)-3-fluoro-1H-indazole]: in the test on MCF-7 cells, the “MCF7 Viability Assay Max Response” value is recorded as “+ (+ = a single % value < 40%)” and the IC50 is over 0.1 µM. In addition, at ER-α in MCF-7 cells, the Emax is at least 40% and the DC50 is at most 0.1 µM.
As for `Fc1n[nH]c2ccc(/C(=C(/c3ccccc3)C3CCC3)c3ccc(/C=C/c4nnco4)cc3)cc12` [Example 208, 2-((E)-4-((E)-2-Cyclobutyl-1-(3-fluoro-1H-indazol-5-yl)-2-phenylvinyl)styryl)-1,3,4-oxadiazole], in the test on MCF-7 cells, the “MCF7 Viability Assay Max Response” value is on record as “++ (++ = a single % value ≧ 40%)” and the IC50 is at most 0.1 µM. Moreover, at ER-α in MCF-7 cells, the Emax is at least 40% and the DC50 is at most 0.1 µM.
As to `Fc1n[nH]c2ccc(/C(=C(/c3ccccc3)C3CCC3)c3ccc(/C=C/c4ncon4)cc3)cc12` [Example 209, 3-((E)-4-((E)-2-Cyclobutyl-1-(3-fluoro-1H-indazol-5-yl)-2-phenylvinyl)styryl)-1,2,4-oxadiazole], in the test on MCF-7 cells, the “MCF7 Viability Assay Max Response” value is “+ (+ = a single % value < 40%)” and the IC50 was at most 0.1 µM. In addition, at ER-α in MCF-7 cells, the Emax was at least 40% and the DC50 was at most 0.1 µM.
For `N=C(N)/C=C/c1ccc(/C(=C(\c2ccccc2)C2CCC2)c2ccc3[nH]nc(F)c3c2)cc1` [Example 210], in the test with MCF-7 cells, the “MCF7 Viability Assay Max Response” value is recorded as “++ (++ = a single % value ≧ 40%)” and the IC50 is at most 0.1 µM. On ER-α in MCF-7 cells, the Emax was at least 40% and the DC50 is at most 0.1 µM.
